Measurements from ChEMBL document CHEMBL1155237, “Selective inhibitors of the mutant B-Raf pathway: discovery of a potent and orally bioavailable aminoisoquinoline” (J Med Chem, 2009).

What was measured:
[1] = Elimination half life in CD1 mouse; format: ADME, organism-based; conditions: in vivo, read-out: beta t1/2 (converted)
[2] = molecular target: Serine/threonine-protein kinase Nek1 (Homo sapiens) (UniProt Q96PY6); test: Inhibition of NEK1 assessed as enzyme activity at 1 uM relative to untreated control; set-up: scale not given: the % may be the effect or the level left
[3] = molecular target: Mitogen-activated protein kinase 12 (Homo sapiens) (UniProt P53778); test: Inhibition of p38-gamma assessed as enzyme activity at 1 uM relative to untreated control; set-up: scale not given: the % may be the effect or the level left
Chain of Mitogen-activated protein kinase 12 (Homo sapiens) (P53778 whole entry, the tested form may be a part): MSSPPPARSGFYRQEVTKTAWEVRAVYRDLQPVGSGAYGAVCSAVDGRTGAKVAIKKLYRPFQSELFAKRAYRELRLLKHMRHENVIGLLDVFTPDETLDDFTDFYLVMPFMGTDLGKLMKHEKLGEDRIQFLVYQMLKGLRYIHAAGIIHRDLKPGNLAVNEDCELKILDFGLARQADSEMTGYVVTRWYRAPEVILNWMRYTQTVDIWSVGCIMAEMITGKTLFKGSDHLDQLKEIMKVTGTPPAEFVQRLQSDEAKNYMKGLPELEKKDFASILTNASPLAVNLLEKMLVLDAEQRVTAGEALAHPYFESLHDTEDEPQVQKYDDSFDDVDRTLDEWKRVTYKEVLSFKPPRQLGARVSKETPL

[4] = molecular target: Tyrosine-protein kinase JAK3 (Homo sapiens) (UniProt P52333); test: Inhibition of JAK3 kinase domain 2 assessed as enzyme activity at 1 uM relative to untreated control; set-up: scale not given: the % may be the effect or the level left
[5] = molecular target: Mast/stem cell growth factor receptor Kit (Homo sapiens) (UniProt P10721); test: Inhibition of KIT assessed as enzyme activity at 1 uM relative to untreated control; set-up: scale not given: the % may be the effect or the level left
[6] = tested on: Mast/stem cell growth factor receptor Kit (Homo sapiens), P10721 [V559D,V654A]; test: Inhibition of KIT V559D,V654A mutant assessed as enzyme activity at 1 uM relative to untreated control; set-up: scale not given: the % may be the effect or the level left
[7] = molecular target: Mitogen-activated protein kinase kinase kinase kinase 4 (Homo sapiens) (UniProt O95819); test: Inhibition of MAP4K4 assessed as enzyme activity at 1 uM relative to untreated control; set-up: scale not given: the % may be the effect or the level left
[8] = molecular target: Calcium/calmodulin-dependent protein kinase type 1 (Homo sapiens) (UniProt Q14012); test: Inhibition of CAMK1 assessed as enzyme activity at 1 uM relative to untreated control; set-up: scale not given: the % may be the effect or the level left
[9] = molecular target: Calcium/calmodulin-dependent protein kinase type II subunit alpha (Homo sapiens) (UniProt Q9UQM7); test: Inhibition of CAMK2A assessed as enzyme activity at 1 uM relative to untreated control; set-up: scale not given: the % may be the effect or the level left
[10] = molecular target: Cyclin-dependent kinase 9 (Homo sapiens) (UniProt P50750); test: Inhibition of CDK9 assessed as enzyme activity at 1 uM relative to untreated control; set-up: scale not given: the % may be the effect or the level left
[11] = molecular target: Serine/threonine-protein kinase Chk2 (Homo sapiens) (UniProt O96017); test: Inhibition of CHEK2 assessed as enzyme activity at 1 uM relative to untreated control; set-up: scale not given: the % may be the effect or the level left
[12] = molecular target: Macrophage colony-stimulating factor 1 receptor (Homo sapiens) (UniProt P07333); test: Inhibition of CSF1R assessed as enzyme activity at 1 uM relative to untreated control; set-up: scale not given: the % may be the effect or the level left
[13] = tested on: Proto-oncogene tyrosine-protein kinase receptor Ret (Homo sapiens), P07949 [V804M]; test: Inhibition of RET V804M mutant assessed as enzyme activity at 1 uM relative to untreated control; set-up: scale not given: the % may be the effect or the level left
[14] = molecular target: Rho-associated protein kinase 2 (Homo sapiens) (UniProt O75116); test: Inhibition of ROCK2 assessed as enzyme activity at 1 uM relative to untreated control; set-up: scale not given: the % may be the effect or the level left
[15] = molecular target: Ribosomal protein S6 kinase alpha-2 (Homo sapiens) (UniProt Q15349); test: Inhibition of RPS6KA2 kinase domain 1 assessed as enzyme activity at 1 uM relative to untreated control; set-up: scale not given: the % may be the effect or the level left
[16] = molecular target: STE20-like serine/threonine-protein kinase (Homo sapiens) (UniProt Q9H2G2); test: Inhibition of SLK assessed as enzyme activity at 1 uM relative to untreated control; set-up: scale not given: the % may be the effect or the level left
[17] = molecular target: NUAK family SNF1-like kinase 2 (Homo sapiens) (UniProt Q9H093); test: Inhibition of SNARK assessed as enzyme activity at 1 uM relative to untreated control; set-up: scale not given: the % may be the effect or the level left
[18] = molecular target: SRSF protein kinase 2 (Homo sapiens) (UniProt P78362); test: Inhibition of SRPK2 assessed as enzyme activity at 1 uM relative to untreated control; set-up: scale not given: the % may be the effect or the level left
[19] = molecular target: Tyrosine-protein kinase FRK (Homo sapiens) (UniProt P42685); test: Inhibition of FRK assessed as enzyme activity at 1 uM relative to untreated control; set-up: scale not given: the % may be the effect or the level left
Chain of Tyrosine-protein kinase FRK (Homo sapiens) (P42685 whole entry): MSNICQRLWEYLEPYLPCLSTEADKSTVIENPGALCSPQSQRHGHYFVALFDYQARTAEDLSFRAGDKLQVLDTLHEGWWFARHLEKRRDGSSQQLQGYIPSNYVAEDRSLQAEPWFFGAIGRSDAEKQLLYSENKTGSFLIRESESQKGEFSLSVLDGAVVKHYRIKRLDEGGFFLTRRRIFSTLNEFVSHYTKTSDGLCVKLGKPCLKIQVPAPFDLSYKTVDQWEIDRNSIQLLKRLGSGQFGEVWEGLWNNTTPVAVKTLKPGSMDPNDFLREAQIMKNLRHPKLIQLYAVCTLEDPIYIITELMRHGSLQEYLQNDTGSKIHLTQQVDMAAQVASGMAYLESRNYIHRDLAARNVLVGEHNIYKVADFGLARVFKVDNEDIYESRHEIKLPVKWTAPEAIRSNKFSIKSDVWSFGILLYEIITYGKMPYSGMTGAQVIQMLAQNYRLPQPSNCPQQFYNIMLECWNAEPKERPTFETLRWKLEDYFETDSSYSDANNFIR

[20] = molecular target: Cyclin-G-associated kinase (Homo sapiens) (UniProt O14976); test: Inhibition of GAK assessed as enzyme activity at 1 uM relative to untreated control; set-up: scale not given: the % may be the effect or the level left
[21] = molecular target: Insulin-like growth factor 1 receptor (Homo sapiens) (UniProt P08069); test: Inhibition of IGF1R assessed as enzyme activity at 1 uM relative to untreated control; set-up: scale not given: the % may be the effect or the level left
Chain of Insulin-like growth factor 1 receptor (Homo sapiens) (P08069 31-736 limits assumed): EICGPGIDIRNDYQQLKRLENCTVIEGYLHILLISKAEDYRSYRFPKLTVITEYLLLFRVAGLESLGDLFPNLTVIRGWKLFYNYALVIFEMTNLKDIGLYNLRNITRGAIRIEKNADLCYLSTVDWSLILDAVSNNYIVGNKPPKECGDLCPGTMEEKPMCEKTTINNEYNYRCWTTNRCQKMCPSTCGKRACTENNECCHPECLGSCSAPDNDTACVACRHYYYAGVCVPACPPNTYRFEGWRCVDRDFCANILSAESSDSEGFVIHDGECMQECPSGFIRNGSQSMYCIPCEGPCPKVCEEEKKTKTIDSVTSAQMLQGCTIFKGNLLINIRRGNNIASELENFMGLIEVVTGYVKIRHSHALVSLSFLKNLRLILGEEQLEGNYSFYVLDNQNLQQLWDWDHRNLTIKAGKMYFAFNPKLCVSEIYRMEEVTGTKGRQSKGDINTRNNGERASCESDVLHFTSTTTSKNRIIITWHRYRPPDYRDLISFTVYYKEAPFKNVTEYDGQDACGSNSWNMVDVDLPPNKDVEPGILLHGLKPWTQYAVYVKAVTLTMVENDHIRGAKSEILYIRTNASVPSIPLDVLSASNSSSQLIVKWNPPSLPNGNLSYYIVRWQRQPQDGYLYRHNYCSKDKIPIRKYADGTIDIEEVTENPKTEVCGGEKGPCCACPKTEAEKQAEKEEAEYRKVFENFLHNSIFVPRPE
Chain of Insulin-like growth factor 1 receptor (Homo sapiens) (P08069 741-1367 limits assumed): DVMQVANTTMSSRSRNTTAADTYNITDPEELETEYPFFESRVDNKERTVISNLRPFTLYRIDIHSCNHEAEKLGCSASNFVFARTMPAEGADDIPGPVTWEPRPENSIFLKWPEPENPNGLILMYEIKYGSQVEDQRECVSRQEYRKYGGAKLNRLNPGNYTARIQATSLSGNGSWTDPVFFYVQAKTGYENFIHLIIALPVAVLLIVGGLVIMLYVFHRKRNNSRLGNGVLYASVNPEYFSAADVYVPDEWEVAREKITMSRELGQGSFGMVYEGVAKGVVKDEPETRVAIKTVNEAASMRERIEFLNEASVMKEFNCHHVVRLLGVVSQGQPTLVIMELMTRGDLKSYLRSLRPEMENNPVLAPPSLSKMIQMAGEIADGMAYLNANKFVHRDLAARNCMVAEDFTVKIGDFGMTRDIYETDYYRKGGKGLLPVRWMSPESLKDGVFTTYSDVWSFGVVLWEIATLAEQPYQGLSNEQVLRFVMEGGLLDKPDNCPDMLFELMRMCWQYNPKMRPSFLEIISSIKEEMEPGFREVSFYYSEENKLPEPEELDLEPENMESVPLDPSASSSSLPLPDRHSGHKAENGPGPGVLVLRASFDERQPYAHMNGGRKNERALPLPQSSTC

[22] = molecular target: Inhibitor of nuclear factor kappa-B kinase subunit alpha (Homo sapiens) (UniProt O15111); test: Inhibition of IKK-alpha assessed as enzyme activity at 1 uM relative to untreated control; set-up: scale not given: the % may be the effect or the level left
[23] = molecular target: Epidermal growth factor receptor (Homo sapiens) (UniProt P04626+P00533+Q15303+P21860); test: Inhibition of EGFR L747-T751del,Sins mutant assessed as enzyme activity at 1 uM relative to untreated control; format: protein assay; set-up: scale not given: the % may be the effect or the level left
[24] = molecular target: Ephrin type-A receptor 5 (Homo sapiens) (UniProt P54756); test: Inhibition of EPHA5 assessed as enzyme activity at 1 uM relative to untreated control; set-up: scale not given: the % may be the effect or the level left
[25] = molecular target: Serine/threonine-protein kinase 33 (Homo sapiens) (UniProt Q9BYT3); test: Inhibition of STK33 assessed as enzyme activity at 1 uM relative to untreated control; set-up: scale not given: the % may be the effect or the level left
Chain of Serine/threonine-protein kinase 33 (Homo sapiens) (Q9BYT3 whole entry, looked up): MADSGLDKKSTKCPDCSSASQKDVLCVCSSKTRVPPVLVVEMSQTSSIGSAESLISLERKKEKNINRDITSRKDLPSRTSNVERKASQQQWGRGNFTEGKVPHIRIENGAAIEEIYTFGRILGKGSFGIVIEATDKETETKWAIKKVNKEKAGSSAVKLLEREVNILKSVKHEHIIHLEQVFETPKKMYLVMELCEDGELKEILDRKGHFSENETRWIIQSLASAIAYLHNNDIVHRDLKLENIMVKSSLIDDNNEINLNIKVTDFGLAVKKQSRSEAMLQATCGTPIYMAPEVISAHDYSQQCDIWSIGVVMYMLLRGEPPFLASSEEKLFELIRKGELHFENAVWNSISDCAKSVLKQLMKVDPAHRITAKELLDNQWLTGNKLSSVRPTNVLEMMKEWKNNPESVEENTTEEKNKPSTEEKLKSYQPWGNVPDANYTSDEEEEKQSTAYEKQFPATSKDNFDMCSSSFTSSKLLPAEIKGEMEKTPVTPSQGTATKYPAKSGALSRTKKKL

[26] = tested on: A-375; test: Antitumor activity against human A375 SQ2 cells xenografted in CD1 mouse assessed as inhibition of tumor growth at 2 mg/kg, po qd for 14 days; format: functional; conditions: A375-SQ2, 336 h
[27] = tested on: A-375; test: Antitumor activity against human A375 SQ2 cells xenografted in CD1 mouse assessed as regression of tumor growth at 5 mg/kg, po qd for 14 days; format: functional
[28] = tested on: Tyrosine-protein kinase ABL1 (Homo sapiens), P00519 [T315I]; test: Inhibition of ABL1 T315I mutant assessed as enzyme activity at 1 uM relative to untreated control; set-up: scale not given: the % may be the effect or the level left
[29] = molecular target: Cyclin-dependent kinase 18 (Homo sapiens) (UniProt Q07002); test: Inhibition of PCTK3 assessed as enzyme activity at 1 uM relative to untreated control; set-up: scale not given: the % may be the effect or the level left
Chain of Cyclin-dependent kinase 18 (Homo sapiens) (Q07002 whole entry, canonical isoform): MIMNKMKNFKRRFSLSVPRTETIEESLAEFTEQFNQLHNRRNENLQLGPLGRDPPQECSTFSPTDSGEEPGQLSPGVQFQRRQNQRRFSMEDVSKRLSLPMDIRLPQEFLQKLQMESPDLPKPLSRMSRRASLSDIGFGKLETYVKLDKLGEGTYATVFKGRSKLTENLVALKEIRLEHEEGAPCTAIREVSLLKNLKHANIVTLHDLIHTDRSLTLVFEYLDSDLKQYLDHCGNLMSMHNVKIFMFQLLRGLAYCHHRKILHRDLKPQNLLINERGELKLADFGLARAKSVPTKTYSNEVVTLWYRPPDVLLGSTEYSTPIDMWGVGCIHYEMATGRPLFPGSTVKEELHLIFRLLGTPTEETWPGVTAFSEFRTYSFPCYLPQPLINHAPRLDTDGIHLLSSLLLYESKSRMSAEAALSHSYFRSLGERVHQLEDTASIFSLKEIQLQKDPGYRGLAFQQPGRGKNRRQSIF

[30] = molecular target: Phosphatidylinositol 4,5-bisphosphate 3-kinase catalytic subunit alpha isoform (Homo sapiens) (UniProt P42336); test: Inhibition of PIK3CA assessed as enzyme activity at 1 uM relative to untreated control; set-up: scale not given: the % may be the effect or the level left
[31] = molecular target: Serine/threonine-protein kinase pim-3 (Homo sapiens) (UniProt Q86V86); test: Inhibition of PIM3 assessed as enzyme activity at 1 uM relative to untreated control; set-up: scale not given: the % may be the effect or the level left
[32] = molecular target: Phosphatidylinositol 5-phosphate 4-kinase type-2 beta (Homo sapiens) (UniProt P78356); test: Inhibition of PIP5K2B assessed as enzyme activity at 1 uM relative to untreated control; set-up: scale not given: the % may be the effect or the level left
[33] = molecular target: Serine/threonine-protein kinase N2 (Homo sapiens) (UniProt Q16513); test: Inhibition of PKN2 assessed as enzyme activity at 1 uM relative to untreated control; set-up: scale not given: the % may be the effect or the level left
Chain of Serine/threonine-protein kinase N2 (Homo sapiens) (Q16513 whole entry, looked up): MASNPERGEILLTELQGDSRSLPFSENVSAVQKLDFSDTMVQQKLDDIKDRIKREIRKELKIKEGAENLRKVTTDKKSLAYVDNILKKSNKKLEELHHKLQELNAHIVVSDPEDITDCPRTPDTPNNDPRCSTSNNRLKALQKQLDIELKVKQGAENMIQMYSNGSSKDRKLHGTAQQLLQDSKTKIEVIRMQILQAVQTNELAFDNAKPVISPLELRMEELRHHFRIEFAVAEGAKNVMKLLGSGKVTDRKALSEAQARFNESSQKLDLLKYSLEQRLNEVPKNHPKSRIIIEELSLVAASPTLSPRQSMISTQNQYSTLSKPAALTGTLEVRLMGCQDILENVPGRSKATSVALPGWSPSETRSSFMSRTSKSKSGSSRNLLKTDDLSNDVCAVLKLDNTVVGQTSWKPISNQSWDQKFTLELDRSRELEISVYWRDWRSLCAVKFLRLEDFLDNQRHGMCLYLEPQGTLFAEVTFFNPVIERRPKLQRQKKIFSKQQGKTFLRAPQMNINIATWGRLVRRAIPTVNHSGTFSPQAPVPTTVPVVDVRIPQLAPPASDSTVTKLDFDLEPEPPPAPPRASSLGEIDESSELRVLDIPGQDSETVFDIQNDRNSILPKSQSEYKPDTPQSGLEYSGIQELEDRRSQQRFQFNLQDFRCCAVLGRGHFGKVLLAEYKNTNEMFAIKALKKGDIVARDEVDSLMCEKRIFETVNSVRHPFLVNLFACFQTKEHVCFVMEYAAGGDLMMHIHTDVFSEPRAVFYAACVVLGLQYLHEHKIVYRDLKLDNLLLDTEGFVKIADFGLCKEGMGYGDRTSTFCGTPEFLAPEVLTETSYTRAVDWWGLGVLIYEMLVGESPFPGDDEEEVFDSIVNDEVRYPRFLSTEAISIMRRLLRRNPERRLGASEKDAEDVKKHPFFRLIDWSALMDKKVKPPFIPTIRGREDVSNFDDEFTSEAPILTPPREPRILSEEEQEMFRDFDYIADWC

[34] = molecular target: Serine/threonine-protein kinase D2 (Homo sapiens) (UniProt Q9BZL6); test: Inhibition of PRKD2 assessed as enzyme activity at 1 uM relative to untreated control; set-up: scale not given: the % may be the effect or the level left
[35] = molecular target: TRAF2 and NCK-interacting protein kinase (Homo sapiens) (UniProt Q9UKE5); test: Inhibition of TNIK assessed as enzyme activity at 1 uM relative to untreated control; set-up: scale not given: the % may be the effect or the level left
[36] = molecular target: Wee1-like protein kinase (Homo sapiens) (UniProt P30291); test: Inhibition of WEE1 assessed as enzyme activity at 1 uM relative to untreated control; set-up: scale not given: the % may be the effect or the level left
Chain of Wee1-like protein kinase (Homo sapiens) (P30291 whole entry, looked up): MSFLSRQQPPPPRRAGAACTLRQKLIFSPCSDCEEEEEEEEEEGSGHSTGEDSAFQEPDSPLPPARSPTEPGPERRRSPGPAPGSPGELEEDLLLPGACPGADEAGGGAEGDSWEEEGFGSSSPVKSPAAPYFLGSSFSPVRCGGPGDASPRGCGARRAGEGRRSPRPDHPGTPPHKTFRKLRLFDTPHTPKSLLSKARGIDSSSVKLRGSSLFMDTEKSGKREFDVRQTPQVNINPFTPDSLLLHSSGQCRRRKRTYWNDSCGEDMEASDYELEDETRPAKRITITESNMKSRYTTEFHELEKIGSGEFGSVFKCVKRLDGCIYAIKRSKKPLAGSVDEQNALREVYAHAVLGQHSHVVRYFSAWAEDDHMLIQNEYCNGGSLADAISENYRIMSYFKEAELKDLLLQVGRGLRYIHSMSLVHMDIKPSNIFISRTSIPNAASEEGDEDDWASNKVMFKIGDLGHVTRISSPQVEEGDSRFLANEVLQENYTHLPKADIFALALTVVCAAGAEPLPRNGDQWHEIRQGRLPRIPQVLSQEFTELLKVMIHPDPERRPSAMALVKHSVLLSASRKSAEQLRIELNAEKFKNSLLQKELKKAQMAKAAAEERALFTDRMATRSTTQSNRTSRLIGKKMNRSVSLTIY

[37] = molecular target: Wee1-like protein kinase 2 (Homo sapiens) (UniProt P0C1S8); test: Inhibition of WEE2 assessed as enzyme activity at 1 uM relative to untreated control; set-up: scale not given: the % may be the effect or the level left

Cc1ccc2c(Nc3ccc(Cl)cc3)nccc2c1Nc1ncccc1-c1ncnc2[nH]cnc12.Cl.Cl.Cl
half-life [1]: 3.3 h | Activity [2]: 100% | Activity [3]: 100% | Activity [4]: 100% | Activity [5]: 28% | Activity [6]: 100% | Activity [7]: 95% | Activity [8]: 100% | Activity [9]: 100% | Activity [10]: 97% | Activity [11]: 100% | Activity [12]: 0.25% | Activity [13]: 96% | Activity [14]: 100% | Activity [15]: 100% | Activity [16]: 40% | Activity [17]: 100% | Activity [18]: 100% | Activity [19]: 17% | Activity [20]: 92% | Activity [21]: 94% | Activity [22]: 100% | Activity [23]: 98% | Activity [24]: 16% | Activity [25]: 100% | inhibition in vivo at 2 mg/kg [26]: 90% | Activity [27]: 85% | Activity [28]: 72% | Activity [29]: 95% | Activity [30]: 100% | Activity [31]: 100% | Activity [32]: 57% | Activity [33]: 86% | Activity [34]: 100% | Activity [35]: 100% | Activity [36]: 92% | Activity [37]: 97%
